Test results: patent US4487924A, “2'-N-β-Lysyl) aminoglycosides” (Kowa Company, Ltd., priority 1982, dated 1984)
In brackets after ≈: the same amount, converted by molar mass.

Tests used:
Assay in all cases: Antibiotic activity (MIC), Table 1
Format in all cases: cell-based
S. aureus 209P JC-1 = settings: Staphylococcus aureus, 209P, read-out: MIC
S. faecalis Imanari = settings: Enterococcus faecalis, read-out: MIC
B. subtilis ATCC 6633 = settings: Bacillus subtilis, ATCC6633, B. subtilis ATCC 6633; read-out: MIC
E. coli NIHJ JC-2 = settings: Escherichia coli, NIHJJC2, E. coli NIHJ JC-2; read-out: MIC
K. pneumoniae PCI 602 = settings: Klebsiella pneumoniae, PCI602, K. pneumoniae PCI 602; read-out: MIC
E. cloacae IID 977 = settings: Enterobacter cloacae, IID977, E. cloacae IID 977; read-out: MIC
S. marcescens NHL = settings: Serratia marcescens, read-out: MIC
P. inconstans 93 = settings: Providencia alcalifaciens, 93, P. inconstans 93; read-out: MIC
P. vulgaris IID 874 = settings: Proteus vulgaris, IID874, P. vulgaris IID 874; read-out: MIC
P. aeruginosa NCTC 10490 = settings: Pseudomonas aeruginosa, NCTC10490, P. aeruginosa NCTC 10490; read-out: MIC
P. cepacia 11D 1340 = settings: Burkholderia cepacia, 11D1340, read-out: MIC
P. maltophilia IID 1275 = settings: Stenotrophomonas maltophilia, IID1275, P. maltophilia IID 1275; read-out: MIC
P. putida IID 5121 = settings: Pseudomonas putida, IID5121, P. putida IID 5121; read-out: MIC
E. coli ML 1410 = settings: Escherichia coli, ML1410, E. coli ML 1410; read-out: MIC
[1] = system: E. coli ML 1410 R81 (APH(3')-I); settings: Escherichia coli
[2] = system: P. aeruginosa TI 13 (APH(3')-I); settings: Pseudomonas aeruginosa
[3] = system: E. coli ML 1410 R83 (APH(3')-II); settings: Escherichia coli
[4] = system: P. aerugionosa TK-157 (APH(3')-II); settings: read-out: MIC
[5] = system: E. coli ML 1410 R102 (AAD(2")); settings: Escherichia coli
[6] = system: K. pneumoniae 4687 (AAD(2")); settings: Klebsiella pneumoniae, read-out: MIC
[7] = system: E. coli ML 1410 R82 (AAD(3")); settings: Escherichia coli
[8] = system: P. aeruginosa GN315 (AAC(6')-IV); settings: Pseudomonas aeruginosa, GN315, P. aeruginosa GN315 (AAC(6')-IV); read-out: MIC
E. coli JR 88 (AAC(3)-I) = settings: Escherichia coli, read-out: MIC
[9] = system: P. aeruginosa 99 (AAC(3)-I); settings: Pseudomonas aeruginosa, read-out: MIC
E. coli R176 (AAC(3)-II) = settings: Escherichia coli, read-out: MIC
[10] = system: P. aeruginosa RST-1 (AAC(3)-III); settings: Pseudomonas aeruginosa, read-out: MIC
[11] = system: P. inconstans GN1554 (AAC(2')); settings: Providencia alcalifaciens, GN1554, P. inconstans GN1554 (AAC(2')); read-out: MIC

## CNCC1CCC(N)C(OC2C(N)CC(OC)C(NC)C2O)O1 (stereo not drawn) [KA-7038VI, reference compound]
S. aureus 209P JC-1
  MIC: 25 µg/mL (≈ 75.2 µM)
S. faecalis Imanari
  MIC: 100 µg/mL (≈ 301 µM)
B. subtilis ATCC 6633
  MIC: 6.25 µg/mL (≈ 18.8 µM)
E. coli NIHJ JC-2
  MIC: 50 µg/mL (≈ 150 µM)
K. pneumoniae PCI 602
  MIC: 100 µg/mL (≈ 301 µM)
E. cloacae IID 977
  MIC: > 100 µg/mL
S. marcescens NHL
  MIC: > 100 µg/mL
P. inconstans 93
  MIC: > 100 µg/mL
P. vulgaris IID 874
  MIC: 50 µg/mL (≈ 150 µM)
P. aeruginosa NCTC 10490
  MIC: > 100 µg/mL
P. cepacia 11D 1340
  MIC: > 100 µg/mL
P. maltophilia IID 1275
  MIC: > 100 µg/mL
P. putida IID 5121
  MIC: > 100 µg/mL
E. coli ML 1410
  MIC: > 100 µg/mL
[1]
  MIC: > 100 µg/mL
[2]
  MIC: 100 µg/mL (≈ 301 µM)
[3]
  MIC: > 100 µg/mL
[4]
  MIC: > 100 µg/mL
[5]
  MIC: 100 µg/mL (≈ 301 µM)
[6]
  MIC: > 100 µg/mL
[7]
  MIC: > 100 µg/mL
[8]
  MIC: > 100 µg/mL
E. coli JR 88 (AAC(3)-I)
  MIC: > 100 µg/mL
[9]
  MIC: > 100 µg/mL
E. coli R176 (AAC(3)-II)
  MIC: > 100 µg/mL
[10]
  MIC: > 100 µg/mL
[11]
  MIC: > 100 µg/mL
